Values quoted from earlier work as cited in patent US20250120959A1, “NEW FORMULATIONS OF PITOLISANT AND METHODS OF USE” (Bioprojet Pharma, priority 2023, published 2025).
Where a name gives a salt, the structure may show the parent alone.

SMILES: Clc1ccc(CCCOCCCN2CCCCC2)cc1 [Formula (Ia), 1-[3-[3-(4-chlorophenyl)propoxy]propyl]-piperidine monohydrochloride]
- pKa: approximately 10.5
